Assay results: PubChem BioAssay AID256 (DTP/NCI, 2004)
Where “and” joins values, the source holds several entries; their conditions need not be identical. Identical values can stand only once. Inconclusive results and toxic doses are left out.

Tested on: CD2F1 mice, L1210 leukemia ip, survival T/C
Assay: NCI In Vivo Anticancer Drug Screen. Data for tumor model L1210 Leukemia (intraperitoneal) in CD2F1 (CDF1) mice
Conditions: higher = longer survival
Outline: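 Each value reflects a quotient of treated over vehicle control outcomes in mice with a transplanted tumor.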

[1] = endpoint: mean survival time, dose: 100.0 mg/kg/injection, schedule: Q01DX009 (ip), vehicle: Klucel (hydroxypropylcellulose) (HPC)
[2] = endpoint: mean survival time, dose: 200.0 mg/kg/injection, schedule: Q01DX009 (ip), vehicle: Klucel (hydroxypropylcellulose) (HPC)
[3] = endpoint: mean survival time, dose: 100.0 mg/kg/injection, schedule: Q01DX009 (ip), vehicle: saline with Tween-80
[4] = endpoint: mean survival time, dose: 100.0 mg/kg/injection, schedule: Q04DX003 (ip), vehicle: saline with Tween-80
[5] = endpoint: mean survival time, dose: 200.0 mg/kg/injection, schedule: Q04DX003 (ip), vehicle: saline with Tween-80
[6] = endpoint: mean survival time, dose: 400.0 mg/kg/injection, schedule: Q01DX009 (ip), vehicle: saline with Tween-80
[7] = endpoint: mean survival time, dose: 400.0 mg/kg/injection, schedule: Q04DX003 (ip), vehicle: saline with Tween-80
[8] = endpoint: mean survival time, dose: 75.0 mg/kg/injection, schedule: Q01DX001 (ip), vehicle: saline
[9] = endpoint: mean survival time, dose: 75.0 mg/kg/injection, schedule: Q04DX003 (ip), vehicle: saline
[10] = endpoint: mean survival time, dose: 100.0 mg/kg/injection, schedule: Q01DX001 (ip), vehicle: Klucel (hydroxypropylcellulose) (HPC)
[11] = endpoint: mean survival time, dose: 200.0 mg/kg/injection, schedule: Q01DX001 (ip), vehicle: Klucel (hydroxypropylcellulose) (HPC)
[12] = endpoint: mean survival time, dose: 50.0 mg/kg/injection, schedule: Q01DX009 (ip), vehicle: saline with Tween-80
[13] = endpoint: mean survival time, dose: 200.0 mg/kg/injection, schedule: Q01DX009 (ip), vehicle: saline with Tween-80
[14] = endpoint: mean survival time, dose: 100.0 mg/kg/injection, schedule: Q04DX002 (ip), vehicle: saline with Tween-80
[15] = endpoint: mean survival time, dose: 200.0 mg/kg/injection, schedule: Q04DX002 (ip), vehicle: saline with Tween-80

CC(C)(C)CC(C)(C)c1ccc(OCCOc2ccc(C(=O)Nc3ccc([N+](=O)[O-])cc3)cc2)cc1
T/C [1]: 87 % of control
T/C (endpoint: mean survival time, dose: 100.0 mg/kg/injection, schedule: Q04DX003 (ip), vehicle: Klucel (hydroxypropylcellulose) (HPC)): 96 % of control
T/C [2]: 105 % of control
T/C (endpoint: mean survival time, dose: 200.0 mg/kg/injection, schedule: Q04DX003 (ip), vehicle: Klucel (hydroxypropylcellulose) (HPC)): 98 % of control
T/C (endpoint: mean survival time, dose: 400.0 mg/kg/injection, schedule: Q04DX003 (ip), vehicle: Klucel (hydroxypropylcellulose) (HPC)): 94 % of control

S=C(Nc1ccccc1)Nc1ccc(NC(=S)Nc2ccccc2)cc1
T/C [3]: 86 % of control
T/C [4]: 92 % of control
T/C [5]: 92 % of control
T/C [6]: 94 % of control
T/C [7]: 86 % of control

CC(=O)Nc1cc(N(CCOS(C)(=O)=O)CCOS(C)(=O)=O)ccc1N=O
T/C (endpoint: mean survival time, dose: 0.25 mg/kg/injection, schedule: Q01DX009 (ip), vehicle: saline): 117 % of control
T/C (endpoint: mean survival time, dose: 0.5 mg/kg/injection, schedule: Q01DX009 (ip), vehicle: saline): 116 % of control
T/C (endpoint: mean survival time, dose: 1.0 mg/kg/injection, schedule: Q01DX009 (ip), vehicle: saline): 95 % of control
T/C (endpoint: mean survival time, dose: 1.5 mg/kg/injection, schedule: Q04DX003 (ip), vehicle: saline): 120 % of control
T/C (endpoint: mean survival time, dose: 2.0 mg/kg/injection, schedule: Q01DX009 (ip), vehicle: saline): 95 % of control
T/C (endpoint: mean survival time, dose: 3.0 mg/kg/injection, schedule: Q04DX003 (ip), vehicle: saline): 115 % of control
T/C (endpoint: mean survival time, dose: 6.0 mg/kg/injection, schedule: Q04DX003 (ip), vehicle: saline): 107 % of control

N#CSCc1ccc(Cl)c(CSC#N)c1
T/C (endpoint: mean survival time, dose: 18.8 mg/kg/injection, schedule: Q01DX009 (ip), vehicle: saline): 108 % of control
T/C (endpoint: mean survival time, dose: 18.8 mg/kg/injection, schedule: Q04DX003 (ip), vehicle: saline): 103 % of control
T/C (endpoint: mean survival time, dose: 37.5 mg/kg/injection, schedule: Q01DX009 (ip), vehicle: saline): 108 % of control
T/C (endpoint: mean survival time, dose: 37.5 mg/kg/injection, schedule: Q04DX003 (ip), vehicle: saline): 105 % of control
T/C [8]: 96 % of control
T/C (endpoint: mean survival time, dose: 75.0 mg/kg/injection, schedule: Q01DX009 (ip), vehicle: saline): 108 % of control
T/C [9]: 109 % of control

CC(C)CCCC(C)C1CCC2C3CC=C4CC(OCCO)CCC4(C)C3CCC12C (configuration not stated)
T/C (endpoint: mean survival time, dose: 25.0 mg/kg/injection, schedule: Q01DX009 (ip), vehicle: other): 104 % of control
T/C (endpoint: mean survival time, dose: 50.0 mg/kg/injection, schedule: Q01DX009 (ip), vehicle: other): 101 % of control
T/C (endpoint: mean survival time, dose: 100.0 mg/kg/injection, schedule: Q01DX009 (ip), vehicle: other): 87 % of control

N/C(=N\N=C1CCCC1)N[N+](=O)[O-]
T/C [4]: 96 % of control
T/C [5]: 102 % of control
T/C [7]: 104 % of control

Cc1c(O)c2c(c(O)c1Cc1ccc(C#N)cc1)C(=O)c1ccccc1C2=O
T/C (endpoint: mean survival time, dose: 12.5 mg/kg/injection, schedule: Q01DX009 (ip), vehicle: Klucel (hydroxypropylcellulose) (HPC)): 91 % of control
T/C (endpoint: mean survival time, dose: 25.0 mg/kg/injection, schedule: Q01DX009 (ip), vehicle: Klucel (hydroxypropylcellulose) (HPC)): 96 % of control
T/C [1]: 90 % of control
T/C [2]: 94 % of control

CCOC(=O)Nc1cc2c(ncn2-c2ccccc2)c(N)n1
T/C [10]: 98 % of control
T/C [11]: 96 % of control

N#C/C(=C\c1ccc([N+](=O)[O-])o1)[N+](=O)[O-]
T/C (endpoint: mean survival time, dose: 25.0 mg/kg/injection, schedule: Q04DX003 (ip), vehicle: saline with Tween-80): 104 % of control
T/C (endpoint: mean survival time, dose: 50.0 mg/kg/injection, schedule: Q04DX003 (ip), vehicle: saline with Tween-80): 94 % of control
T/C [4]: 97 % of control

CCCCC(=O)C(=O)OC(OC(=O)C(=O)CCCC)c1ccccc1
T/C [8]: 93 % of control
T/C (endpoint: mean survival time, dose: 150.0 mg/kg/injection, schedule: Q01DX001 (ip), vehicle: saline): 97 % of control

COc1cc(OC)c(OC)cc1Br
T/C (endpoint: mean survival time, dose: 100.0 mg/kg/injection, schedule: Q01DX009 (ip), vehicle: saline sonified): 101 % of control
T/C [4]: 102 % of control
T/C (endpoint: mean survival time, dose: 200.0 mg/kg/injection, schedule: Q01DX009 (ip), vehicle: saline sonified): 97 % of control
T/C [5]: 102 % of control
T/C (endpoint: mean survival time, dose: 400.0 mg/kg/injection, schedule: Q01DX009 (ip), vehicle: saline sonified): 97 % of control
T/C [7]: 102 % of control

COc1ccc(/C=N\N=C\c2ccc(OC)c(OC)c2)cc1OC
T/C (endpoint: mean survival time, dose: 100.0 mg/kg/injection, schedule: Q04DX003 (ip), vehicle: saline): 105 % of control
T/C (endpoint: mean survival time, dose: 200.0 mg/kg/injection, schedule: Q04DX003 (ip), vehicle: saline): 100 % of control
T/C (endpoint: mean survival time, dose: 400.0 mg/kg/injection, schedule: Q04DX003 (ip), vehicle: saline): 94 % of control

CCCC/C=C/C1(O)CCCCC1
T/C [12]: 98 % of control
T/C [3]: 103 % of control
T/C [13]: 103 % of control

O=C1C(O)=C(c2ccccc2C(=O)O)C(=O)C(O)=C1c1ccccc1C(=O)O
T/C [3]: 92 % of control

N#Cc1cccc(N)c1
T/C [3]: 106 % of control
T/C [13]: 94 % of control
T/C [6]: 98 % of control

CC(C)[Si]1(C(C)C)OCC2OC(c3cn(C)c(=O)n(C)c3=O)C(OC(=S)n3ccnc3)C2O[Si](C(C)C)(C(C)C)O1 (configuration not stated)
T/C (endpoint: median survival time, dose: 12.5 mg/kg/injection, schedule: Q01DX005 (ip), vehicle: distilled water + Tween-80): 98 % of control
T/C (endpoint: median survival time, dose: 25.0 mg/kg/injection, schedule: Q01DX005 (ip), vehicle: distilled water + Tween-80): 98 % of control
T/C (endpoint: median survival time, dose: 50.0 mg/kg/injection, schedule: Q01DX005 (ip), vehicle: distilled water + Tween-80): 92 % of control
T/C (endpoint: median survival time, dose: 100.0 mg/kg/injection, schedule: Q01DX005 (ip), vehicle: distilled water + Tween-80): 92 % of control
T/C (endpoint: median survival time, dose: 200.0 mg/kg/injection, schedule: Q01DX005 (ip), vehicle: distilled water + Tween-80): 92 % of control

S=C1Nc2ccccc2CS1
T/C [10]: 105 % of control
T/C [11]: 102 % of control
T/C (endpoint: mean survival time, dose: 400.0 mg/kg/injection, schedule: Q01DX001 (ip), vehicle: Klucel (hydroxypropylcellulose) (HPC)): 103 % of control

CCOC/C=C/C(C)(C)C
T/C [12]: 102 % of control
T/C [3]: 102 % of control
T/C [13]: 97 % of control

COC(=O)C1C2C=CC(C3C=CC32)C1C(=O)OC (configuration not stated)
T/C [3]: 97 % of control
T/C [13]: 94 % of control
T/C [6]: 95 % of control

CN(C=O)NC(=O)N(CCCl)N=O
T/C (endpoint: median survival time, dose: 3.12 mg/kg/injection, schedule: Q01DX001 (ip), vehicle: saline): 176 % of control and 200 % of control
T/C (endpoint: median survival time, dose: 6.25 mg/kg/injection, schedule: Q01DX001 (ip), vehicle: saline): 197 % of control and 312 % of control
T/C (endpoint: median survival time, dose: 12.5 mg/kg/injection, schedule: Q01DX001 (ip), vehicle: saline): 370 % of control and 375 % of control
T/C (endpoint: median survival time, dose: 25.0 mg/kg/injection, schedule: Q01DX001 (ip), vehicle: saline): 370 % of control and 375 % of control
T/C (endpoint: median survival time, dose: 50.0 mg/kg/injection, schedule: Q01DX001 (ip), vehicle: saline): 87 % of control

NC(CS)=NC1CN2CCC1CC2 (configuration not stated)
T/C (endpoint: mean survival time, dose: 50.0 mg/kg/injection, schedule: Q04DX002 (ip), vehicle: saline): 115 % of control
T/C (endpoint: mean survival time, dose: 100.0 mg/kg/injection, schedule: Q04DX002 (ip), vehicle: saline): 101 % of control

COc1cc(OC)c(C(=O)c2ccccc2N)c(OC)c1
T/C [12]: 98 % of control
T/C [3]: 101 % of control
T/C [13]: 98 % of control

CC(=O)CN(C(C)=O)c1ccccc1
T/C [14]: 105 % of control
T/C [15]: 97 % of control
T/C (endpoint: mean survival time, dose: 400.0 mg/kg/injection, schedule: Q04DX002 (ip), vehicle: saline with Tween-80): 109 % of control

Nc1ccccc1-c1n[nH]c2ccccc12
T/C (endpoint: mean survival time, dose: 25.0 mg/kg/injection, schedule: Q04DX002 (ip), vehicle: saline with Tween-80): 110 % of control
T/C (endpoint: mean survival time, dose: 50.0 mg/kg/injection, schedule: Q04DX002 (ip), vehicle: saline with Tween-80): 103 % of control
T/C [14]: 103 % of control
T/C [15]: 100 % of control

O=P1(Cc2ccccc2)C(c2ccccc2)=C(O)C2CCCC21 (configuration not stated)
T/C (endpoint: mean survival time, dose: 50.0 mg/kg/injection, schedule: Q01DX009 (ip), vehicle: Klucel (hydroxypropylcellulose) (HPC)): 97 % of control
T/C [1]: 97 % of control
T/C [2]: 89 % of control

CCC(NC(=O)OCc1ccccc1)C(=O)O (configuration not stated)
T/C [3]: 88 % of control
T/C [13]: 90 % of control
T/C [6]: 90 % of control

CCCCCCCCCCCCCCCC(=O)N1CCCN(C(=O)CCCCCCCCCCCCCCC)C1
T/C [9]: 89 % of control
T/C (endpoint: mean survival time, dose: 150.0 mg/kg/injection, schedule: Q04DX003 (ip), vehicle: saline): 89 % of control
T/C (endpoint: mean survival time, dose: 300.0 mg/kg/injection, schedule: Q04DX003 (ip), vehicle: saline): 103 % of control
